{
  "source": "patent US5270302A",
  "about": "“Derivatives of tetrapeptides as CCK agonists” (priority 1991, dated 1993)",
  "note": "*1 amine or outer side, *2 acyl side, *3 side chain or, on linkers, in order; H or OH if unused. Where a SMILES comes first, the peptide text is derived from it. Side-chain parts run from the residue outwards. [ ]: non-standard residue; d: D form. The star is where a group is joined. Desaminotyrosyl = O=C(CCc1ccc(O)cc1)*; NMeF = CN[C@@H](Cc1ccccc1)C(=O)O; X11 = O=C(C=Cc1ccc(Cl)c(Cl)c1)*; X18 = O=C(/C=C/c1ccc(Cl)cc1)*; X14 = O=[N+]([O-])c1ccccc1N*; X8 = O=C(C=Cc1ccc(O)c(O)c1)*; X7 = Cc1ccc(/C=C/C(=O)*)cc1; X13 = O=C(C=Cc1ccc(F)cc1)*; X21 = O=C(C=Cc1cccc(O)c1)*; X1 = O=C(C=Cc1ccc(O)cc1)*; Boc = CC(C)(C)OC(=O)*; CO = O=C([*:1])[*:2]; X19 = Brc1ccccc1N*",
  "data": [
    {"molecular_target": "T1, Type-A CCK receptor (Cavia porcellus, UniProt Q63931)", "T1 construct": "Cortical and pancreatic membranes were prepared as described; from tissue; host or cells: guinea pig pancreas membranes", "T1 sequence (Q63931 1-430)": "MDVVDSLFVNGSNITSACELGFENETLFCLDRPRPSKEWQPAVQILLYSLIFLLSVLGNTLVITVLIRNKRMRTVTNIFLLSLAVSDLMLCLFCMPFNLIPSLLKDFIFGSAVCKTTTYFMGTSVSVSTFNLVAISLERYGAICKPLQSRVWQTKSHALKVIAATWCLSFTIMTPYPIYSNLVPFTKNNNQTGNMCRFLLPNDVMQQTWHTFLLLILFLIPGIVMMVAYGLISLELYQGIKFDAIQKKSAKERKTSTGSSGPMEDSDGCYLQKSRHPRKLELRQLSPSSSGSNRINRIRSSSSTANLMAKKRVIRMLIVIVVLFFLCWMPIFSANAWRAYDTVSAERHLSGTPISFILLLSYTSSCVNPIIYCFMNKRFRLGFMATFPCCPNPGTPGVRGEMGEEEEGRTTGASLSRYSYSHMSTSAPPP", "assay": "Radioligand binding of [125I]BH-CCK-8 in guinea pig pancreatic membrane preparations", "details": "not given", "description": "(§1) CCK-8 [Asp-Tyr(SO3 H)-Met-Gly-Trp-Met-Asp-PheNH2 ], bestatin and phosphoramidion were purchased from Peptide International (Louisville, Ky.). EGTA (ethylene glycol-bis-(β-aminoethyl) N,N,N',N'-tetraacetic acid), HEPES (4-(2-hydroxyethyl)-1-piperazine-enthanesulfonic acid) and BSA (bovine serum albumin) were purchased from Sigma Chemical Co. (St. Louis, Mo.). [^125 I]-Bolton-Hunteer (BH-CCK-8) (specific activity, 2200 Ci/mmol) was obtained from New England Nuclear (Boston, Mass.). Male guinea pigs, 250 to 325 g, were obtained from Scientific Small Animal Laboratory and Farm (Arlington Heights, Ill.). Collagenase, code CLSPA was purchased from Worthington (Frehold, N.J.).\n(§2) Protocol For Radioligand Binding Experiments in Guinea Pig Cerebral Cortical and Pancreatic Membrane Preparations\n(§3) Cortical and pancreatic membranes were prepared as described (Lin and Miller; J. Pharmacol. Exp. Ther. 1985, 232:775-780,). In brief, cortex and pancreas were removed and rinsed with ice-cold saline. Visible fat and connective tissues were removed from the pancreas. […] The homogenates were entrifuged for 10 minutes at 1075×g and pellets were discarded. The supernatants were saved and centrifuged at 38,730×g for 20 minutes. The resultant pellets were rehomogenized in 25 mL of 50 mM Tris-HCl buffer with a Teflon-glass homogenizer, 5 up and down strokes. The homogenates were centrifuged again at 38,730×g for 20 minutes. Pellets werre then resuspended in 20 mM HEPES, containing 1 mM EGTA, 118 mM NaCl, 4.7 mM KCl, 5 mM MgCl2, 100 μM bestatin, 3 μM phosphoramidon, pH 7.4 at 22° C. with a Teflon-glass homogenizer, 15 up and down strokes. Resuspension volume for the cortex was 15-18 mL per gram of original wet weight and 60 mL per gram for the pancreas.\n(§4) [^125 I]Bolton-Hunter CCK-8 and test compounds were diluted with HEPES-EGTA-salt buffer (see above) containing 0.5% BSA. To 1 mL Skatron polystyrene tubes were added 25 μL of test compounds, 25 μL of [^125 I]BH-CCK-8 and 200 μL of membrane suspension. The final BSA concentration was 0.1%. The cortical tissues were incubated at 30° C. for 150 minutes and pancreatic tissues were incubated at 37° C. for 150 min. Incubations were terminated by filtration using Skatron Cell Harvester and SS32 microfiber filter mats. […] IC50 s were determined from the Hill analysis.", "units": {"IC50": "nM"}, "values": [
      {"smiles": "CC(C)(C)OC(=O)N[C@@H](Cc1c[nH]c2ccccc12)C(=O)N[C@@H](CCCCNC(=O)CCc1ccc(O)cc1)C(=O)N[C@@H](CC(=O)O)C(=O)N[C@@H](Cc1ccccc1)C(N)=O", "note": "[Example 1, t-BOC-Trp-Lys(ε-N-(3-(4-hydroxyphenyl)propionyl))-Asp-PheNH2] (Boc-WK(Desaminotyrosyl)DF-NH2)", "IC50": 124},
      {"smiles": "CC(C)(C)OC(=O)N[C@@H](Cc1c[nH]c2ccccc12)C(=O)N[C@@H](CCCCNC(=O)C=Cc1cccc(O)c1)C(=O)N[C@@H](CC(=O)O)C(=O)N[C@@H](Cc1ccccc1)C(N)=O", "note": "[Example 5, t-BOC-Trp-Lys(ε-N-(3-hydroxycinnamoyl))-Asp-PheNH2] (Boc-WK(X21)DF-NH2)", "IC50": 37},
      {"smiles": "Cc1ccc(/C=C/C(=O)NCCCC[C@H](NC(=O)[C@H](Cc2c[nH]c3ccccc23)NC(=O)OC(C)(C)C)C(=O)N[C@@H](CC(=O)O)C(=O)N[C@@H](Cc2ccccc2)C(N)=O)cc1", "note": "[Example 6, t-BOC-Trp-Lys(ε-N-(4-methylcinnamoyl))-Asp-PheNH2] (Boc-WK(X7)DF-NH2)", "IC50": 71},
      {"smiles": "CC(C)(C)OC(=O)N[C@@H](Cc1c[nH]c2ccccc12)C(=O)N[C@@H](CCCCNC(=O)C=Cc1ccc(F)cc1)C(=O)N[C@@H](CC(=O)O)C(=O)N[C@@H](Cc1ccccc1)C(N)=O", "note": "[Example 7, t-BOC-Trp-Lys(ε-N-(4-fluorocinnamoyl))-Asp-PheNH2] (Boc-WK(X13)DF-NH2)", "IC50": 65},
      {"smiles": "CC(C)(C)OC(=O)N[C@@H](Cc1c[nH]c2ccccc12)C(=O)N[C@@H](CCCCNC(=O)C=Cc1ccc(O)c(O)c1)C(=O)N[C@@H](CC(=O)O)C(=O)N[C@@H](Cc1ccccc1)C(N)=O", "note": "[Example 14, t-BOC-Trp-Lys(ε-N-(3,4-dihydroxycinnamoyl))-Asp-PheNH2] (Boc-WK(X8)DF-NH2)", "IC50": 33},
      {"smiles": "CC(C)(C)OC(=O)N[C@@H](Cc1c[nH]c2ccccc12)C(=O)N[C@@H](CCCCNC(=O)C=Cc1ccc(Cl)c(Cl)c1)C(=O)N[C@@H](CC(=O)O)C(=O)N[C@@H](Cc1ccccc1)C(N)=O", "note": "[Example 15, t-BOC-Trp-Lys(ε-N-(3,4-dichlorocinnamoyl))-Asp-PheNH2] (Boc-WK(X11)DF-NH2)", "IC50": 65},
      {"smiles": "CN(C(=O)[C@H](CC(=O)O)NC(=O)[C@H](CCCCNC(=O)/C=C/c1ccc(Cl)cc1)NC(=O)[C@H](Cc1c[nH]c2ccccc12)NC(=O)OC(C)(C)C)[C@@H](Cc1ccccc1)C(N)=O", "note": "[Example 18, t-BOC-Trp-Lys(ε-N-(4-chlorocinnamoyl))-Asp-(NMe)PheNH2] (Boc-WK(X18)D[NMeF]-NH2)", "IC50": 22},
      {"smiles": "CC(C)(C)OC(=O)N[C@@H](Cc1c[nH]c2ccccc12)C(=O)N[C@@H](CCCCNC(=O)Nc1ccccc1[N+](=O)[O-])C(=O)N[C@@H](CC(=O)O)C(=O)N[C@@H](Cc1ccccc1)C(N)=O", "note": "[Example 34, t-BOC-Trp-Lys(ε-N-(2-nitrophenyl)aminocarbonyl)-Asp-PheNH2] (Boc-WK([CO-X14])DF-NH2)", "IC50": 23},
      {"smiles": "CC(C)(C)OC(=O)N[C@@H](Cc1c[nH]c2ccccc12)C(=O)N[C@@H](CCCCNC(=O)Nc1ccccc1Br)C(=O)N[C@@H](CC(=O)O)C(=O)N[C@@H](Cc1ccccc1)C(N)=O", "note": "[Example 36, t-BOC-Trp-Lys(ε-N-(2-bromophenyl)aminocarbonyl)-Asp-PheNH2] (Boc-WK([CO-X19])DF-NH2)", "IC50": 7},
      {"smiles": "Cc1ccccc1/N=C(/S)NCCCC[C@H](NC(=O)[C@H](Cc1c[nH]c2ccccc12)NC(=O)OC(C)(C)C)C(=O)N[C@@H](CC(=O)O)C(=O)N[C@@H](Cc1ccccc1)C(N)=O", "note": "[Example 38, t-BOC-Trp-Lys(ε-N-(2-methylphenyl)aminothiocarbonyl)-Asp-PheNH2]", "IC50": 230}
    ]},
    {"molecular_target": "T1, Type-A CCK receptor", "assay": "Radioligand binding of [125I]BH-CCK-8 in guinea pig pancreatic membrane preparations", "details": "guinea pig pancreatic membranes, 37° C., 150 min; read-out: IC50 (nM) 125I-BH-CCK-8 Type-A receptor", "description": "as §1, §2, §3, §4", "units": {"IC50": "nM"}, "values": [
      {"smiles": "CN(C(=O)[C@H](CC(=O)O)NC(=O)[C@H](CCCCNC(=O)C=Cc1ccc(O)cc1)NC(=O)[C@H](Cc1c[nH]c2ccccc12)NC(=O)OC(C)(C)C)[C@@H](Cc1ccccc1)C(N)=O", "note": "[Example 17, t-BOC-Trp-Lys(ε-N-(4-hydroxycinnamoyl))-Asp-(NMe)PheNH2] (Boc-WK(X1)D[NMeF]-NH2)", "IC50": 7}
    ]}
  ]
}
